Data published in patent US20250206722A1, “SMALL MOLECULE INHIBITORS OF TEA DOMAIN FAMILY MEMBERS” (The Scripps Research Institute, priority 2022, published 2025).

Assays:
Type in all cases: cell-based
NCI-H226 cells [1] = test: NCI-H226 proliferation assay (in house); conditions: Homo sapiens, 120 h, 5 days, Cell TiterGlo, 20-point 1:2 dilution from 20 μM
Procedure, shortened: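 Viability by CellTiter-Glo luminescence after 5-day compound exposure at 37 °C, 5% CO2. Compounds added 24 h post-seeding (500 cells/well, RPMI 1640 with 10% FBS) as 20-point, 2-fold series from 20 μM final, triplicate wells.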

[2] = system: transcriptional activity of TEADs; test: TEAD reporter assay (MCF7 TEAD-LUC reporter cells); conditions: Homo sapiens, 24 hours, BrightGlo luminescence
Procedure, shortened: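 Luminescence (BrightGlo) was read after 24 h of compound treatment at 37 °C, 5 % CO2. Cells had been seeded at 5,000 per well in DMEM with 10 % FBS and insulin and rested 24 h first. Dosing used 20 points, 1:2 dilution from 20 μM final, triplicates.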

NCI-H226 cells [3] = test: NCI-H226 proliferation assay (Wuxi AppTec); conditions: Homo sapiens, 168 h, 7 days, CellTiter-Glo, top dose 10, 3-fold dilution, 9 doses
Method: […] Proliferation Assay (From Wuxi AppTec CO.):
Day −1: Seeding cells • (1) Equilibrate cell culture medium to 37° C. • (2) Remove and discard the culture medium. • (3) Briefly rinse the cell layer with PBS to remove all traces of serum that contains […]. • (4) Add 2-3 mL of Trypsin-EDTA solution to flask and observe cells under an inverted microscope until cell layer is dispersed. • (5) Add 6-8 mL of growth medium to terminate the digestion of Trypsin/EDTA. • (6) Centrifuge the mixture (Trypsin EDTA and the growth medium) at 1000 rpm for 5 mins. • (7) Discard the supernatant, suspend the cell precipitation with the fresh growth medium, then take 1 mL the cell suspension to count cells with Vi-cell XR cell viability analyzer. • (8) Adjust the cell density to 500 cells/well for 384-well plates. • (9) Add 50 µL/well volume cell suspension to the assay plate. • (10) Add […] media to the control columns. • (11) Incubate the plate at 37° C., 5% CO2 for overnight. Day 0: Compounds treatment • (1) Add cpds to each well by Tecan HP D300E. The top dose is […], 3-fold dilution and 9 doses. DMSO final concentration will be normalized to 0.2%. • (2) Incubate the assay plate at 37° C., 5% CO2 for 7 days. Day 7: Plate read • (1) Equilibrate the assay plate to the room temperature for nearly 30 minutes. • (2) Add […] CellTiter-Glo reagent to each well and shake the plate for 1 min, incubate 10 min and keep them from light. • (3) Detect the plate by EnVision. Data analysis:
Max: Average of the DMSO group Min: Average of medium group.

IC50 (NCI-H226 cells [1]) | IC50 [2] | IC50 (NCI-H226 cells [3]) | SMILES
0.651 µM | 0.3 nM | 0.151 µM | C#CCC1CN(c2nccnc2Nc2ccc(C(F)(F)F)cc2)CCN1C(=O)C=C (centres unmarked) [Example 23, 1-(2-(prop-2-yn-1-yl)-4-(3-((4-(trifluoromethyl)phenyl)amino)pyrazin-2-yl)piperazin-1-yl)prop-2-en-1-one]
0.084 µM | 0.8 nM | 0.028 µM | C=CC(=O)N1CCN(c2nccnc2Nc2ccc(OC(F)F)cc2)CC1 [Example 35, 1-(4-(3-((4-(difluoromethoxy)phenyl)amino)pyrazin-2-yl)piperazin-1-yl)prop-2-en-1-one]
 |  | 0.078 µM | C=CC(=O)N1CCN(c2nccnc2Nc2ccc(C(F)(F)F)c(OC)c2)CC1 [Example 37, 1-(4-(3-((3-methoxy-4-(trifluoromethyl)phenyl)amino)pyrazin-2-yl)piperazin-1-yl)prop-2-en-1-one]
 |  | 0.42 µM | C=CC(=O)N1CCN(c2nccnc2Nc2ccc(C#N)cc2)CC1 [Example 38, 4-((3-(4-acryloylpiperazin-1-yl)pyrazin-2-yl)amino)benzonitrile]
0.006 µM | 1 nM | 0.011 µM | C=CC(=O)N1CC=C(c2nccnc2Nc2ccc(C(F)(F)F)cn2)CC1 [Example 43, 1-(4-(3-((5-(trifluoromethyl)pyridin-2-yl)amino)pyrazin-2-yl)-3,6-dihydropyridin-1(2H)-yl)prop-2-en-1-one]
0.012 µM | 1.4 nM | 0.02 µM | C=CC(=O)N1CCC(c2nccnc2Nc2ccc(C(F)(F)F)cn2)CC1 [Example 44, 1-(4-(3-((5-(trifluoromethyl)pyridin-2-yl)amino)pyrazin-2-yl)piperidin-1-yl)prop-2-en-1-one]
1.63 µM | 0.6 nM | 0.452 µM | C=C(F)C(=O)N1CCN(c2nccnc2Nc2ccc(C(F)(F)F)nc2)CC1 [Example 46, 2-fluoro-1-(4-(3-((6-(trifluoromethyl)pyridin-3-yl)amino)pyrazin-2-yl)piperazin-1-yl)prop-2-en-1-one]
0.023 µM | 0.7 nM | 0.032 µM | C=CC(=O)N1CCN(c2nccnc2Nc2ccc(OC(F)(F)F)nc2)CC1 [Example 48, 1-(4-(3-((6-(trifluoromethoxy)pyridin-3-yl)amino)pyrazin-2-yl)piperazin-1-yl)prop-2-en-1-one]
0.055 µM | 2 nM | 0.031 µM | C=CC(=O)N1CCN(c2nccnc2Nc2ccc(OC(F)F)nc2)CC1 [Example 49, 1-(4-(3-((6-(difluoromethoxy)pyridin-3-yl)amino)pyrazin-2-yl)piperazin-1-yl)prop-2-en-1-one]
0.034 µM | 3.1 nM | 0.026 µM | C=CC(=O)N1CCN(c2nccnc2Nc2cnc(C(F)(F)F)c(F)c2)CC1 [Example 50, 1-(4-(3-((5-fluoro-6-(trifluoromethyl)pyridin-3-yl)amino)pyrazin-2-yl)piperazin-1-yl)prop-2-en-1-one]
0.03 µM | 4 nM | 0.058 µM | C=CC(=O)N1CC=C(c2nccnc2Nc2ccc(C(F)(F)F)nc2)CC1 [Example 55, 1-(4-(3-((6-(trifluoromethyl)pyridin-3-yl)amino)pyrazin-2-yl)-3,6-dihydropyridin-1(2H)-yl)prop-2-en-1-one]
 |  | 0.036 µM | C=CC(=O)N1CC=C(c2nccnc2Nc2ccc(OC(F)(F)F)nc2)CC1 [Example 57, 1-(4-(3-((6-(trifluoromethoxy)pyridin-3-yl)amino)pyrazin-2-yl)-3,6-dihydropyridin-1(2H)-yl)prop-2-en-1-one]
 |  | 0.1 µM | C=CC(=O)N1CC=C(c2nccnc2Nc2cnc(C(F)(F)F)nc2)CC1 [Example 59, 1-(4-(3-((2-(trifluoromethyl)pyrimidin-5-yl)amino)pyrazin-2-yl)-3,6-dihydropyridin-1(2H)-yl)prop-2-en-1-one]
0.079 µM | 2.9 nM | 1.45 µM | C=CC(=O)N1CCN(c2nccnc2NC2C3CC2C3C(F)(F)F)CC1 (centres unmarked) [Example 67, 1-(4-(3-((4-(trifluoromethyl)bicyclo[1.1.1]pentan-2-yl)amino)pyrazin-2-yl)piperazin-1-yl)prop-2-en-1-one]
0.005 µM | 0.52 nM | 0.011 µM | C=CC(=O)N1CCN(c2nccnc2Oc2ccc(OC(F)(F)F)cc2)CC1 [Example 72, 1-(4-(3-(4-(trifluoromethoxy)phenoxy)pyrazin-2-yl)piperazin-1-yl)prop-2-en-1-one]
 |  | 0.205 µM | C=CC(=O)N1CCN(c2ccnnc2Nc2ccc(C(F)(F)F)cn2)CC1 [Example 120, 1-(4-(3-((5-(trifluoromethyl)pyridin-2-yl)amino)pyridazin-4-yl)piperazin-1-yl)prop-2-en-1-one]
 |  | 1.4 µM | C=CC(=O)N1CCN(c2ccnnc2Nc2ccc(C(F)(F)F)nc2)CC1 [Example 121, 1-(4-(3-((6-(trifluoromethyl)pyridin-3-yl)amino)pyridazin-4-yl)piperazin-1-yl)prop-2-en-1-one]

The remaining lines, values behind:

SMILES | IC50 (NCI-H226 cells [1]) | IC50 [2] | IC50 (NCI-H226 cells [3])
C=C(F)C(=O)N1CC=C(c2nccnc2Nc2ccc(OC(F)(F)F)nc2)CC1 [Example 58, 2-fluoro-1-(4-(3-((6-(trifluoromethoxy)pyridin-3-yl)amino)pyrazin-2-yl)-3,6-dihydropyridin-1(2H)-yl)prop-2-en-1-one] |  |  | 0.283 µM
C=C(F)C(=O)N1CC=C(c2nccnc2Nc2cnc(C(F)(F)F)nc2)CC1 [Example 60, 2-fluoro-1-(4-(3-((2-(trifluoromethyl)pyrimidin-5-yl)amino)pyrazin-2-yl)-3,6-dihydropyridin-1(2H)-yl)prop-2-en-1-one] |  |  | 1.31 µM
C=C(F)C(=O)N1CC(Nc2nccnc2Nc2ccc(C(F)(F)F)nc2)C1 [Example 63, 2-fluoro-1-(3-((3-((6-(trifluoromethyl)pyridin-3-yl)amino)pyrazin-2-yl)amino)azetidin-1-yl)prop-2-en-1-one] | 1.5 µM | 4.8 nM | 1.7 µM
C=CC(=O)N1CCN(c2nccnc2Oc2ccc(OC(F)F)cc2)CC1 [Example 71, 1-(4-(3-(4-(difluoromethoxy)phenoxy)pyrazin-2-yl)piperazin-1-yl)prop-2-en-1-one] | 0.008 µM | 1.3 nM | 0.007 µM
C=C(F)C(=O)N1CCC(c2nccnc2Oc2ccc(C(F)(F)F)cn2)CC1 [Example 76, 2-fluoro-1-(4-(3-((5-(trifluoromethyl)pyridin-2-yl)oxy)pyrazin-2-yl)piperidin-1-yl)prop-2-en-1-one] | 0.424 µM |  | 0.104 µM
C=CC(=O)N1CCC(O)(c2nccnc2Oc2ccc(C(F)(F)F)nc2)CC1 [Example 83, 1-(4-hydroxy-4-(3-((6-(trifluoromethyl)pyridin-3-yl)oxy)pyrazin-2-yl)piperidin-1-yl)prop-2-en-1-one] |  |  | 0.263 µM
C=CC(=O)N1CCC(c2nccnc2Oc2cnc(C(F)(F)F)nc2)CC1 [Example 91, 1-(4-(3-((2-(trifluoromethyl)pyrimidin-5-yl)oxy)pyrazin-2-yl)piperidin-1-yl)prop-2-en-1-one] | 0.075 µM |  | 0.042 µM
C=C(F)C(=O)N1CCC(c2nccnc2Oc2cnc(C(F)(F)F)nc2)CC1 [Example 92, 2-fluoro-1-(4-(3-((2-(trifluoromethyl)pyrimidin-5-yl)oxy)pyrazin-2-yl)piperidin-1-yl)prop-2-en-1-one] | 5.64 µM |  | 1.12 µM
C=C(F)C(=O)N1CCC(c2nc(C)cnc2Oc2ccc(C(F)(F)F)nc2)CC1 [Example 115, 2-fluoro-1-(4-(6-methyl-3-((6-(trifluoromethyl)pyridin-3-yl)oxy)pyrazin-2-yl)piperidin-1-yl)prop-2-en-1-one] | 0.074 µM |  | 0.041 µM
C=CC(=O)N1CC=C(c2cccnc2Nc2ccc(OC(F)(F)F)nc2)CC1 [Example 147, 1-(2-((6-(trifluoromethoxy)pyridin-3-yl)amino)-3′,6′-dihydro-[3,4′-bipyridin]-1′(2′H)-yl)prop-2-en-1-one] |  | 2.3 nM | 0.149 µM
C=CC(=O)N1CCC(n2nccc2C(=O)c2ccc(C(F)(F)F)cc2)CC1 [Example 164, 1-(4-(5-(4-(trifluoromethyl)benzoyl)-1H-pyrazol-1-yl)piperidin-1-yl)prop-2-en-1-one] |  | 0.4 nM | 0.045 µM
C=C(F)C(=O)NCC1CN(c2ccc(C(F)(F)F)nc2)c2nccnc2N1 (centres unmarked) [Example 194] | > 20 µM | 238 nM | 
